In brackets after ≈: the same amount, converted by molar mass. Entries after “also recorded” stand apart in the source; their conditions may differ. Like-named read-outs stand apart in the source and are kept apart here.
How the values were obtained:
[1] = In vivo pharmacokinetic analysis; conditions: ICR, mouse; mice, 5 mg/kg, oral gavage in 0.5% CMC, plasma
Method: A group of 9 ICR mice received 5 mg/kg of compound in 0.5% CMC by oral gavage. Blood was taken before treatment and at 5 min, 30 min, 1, 2, 4, 8, 12 and 24 h after treatment. 80 μL of whole blood was sampled (n=3 at each time point) via retro-orbital bleeds or cardiac puncture. The blood sample was collected into EDTA tubes and plasma were obtained by centrifugation at 1500-1600 rpm for 10 min at 4° C. After centrifugation, plasma sample was transferred to a new tube and stored at −60 to −90° C. for future analysis. Plasma concentration of (compounds was quantified by a method based on liquid chromatography coupled to tandem mass-spectrometric detections (LC/MS/MS). Noncompartmental pharmacokinetics parameters were calculated.

BxPC-3 xenografts = assay: Anti-tumor growth efficacy in pancreatic tumor BxPC3 nude mice xenograft model; format: in vivo
Method: BxPC-3 cells were cultured in 1640 medium containing 10% FBS at 37° C. and 5% CO2, 8×10^6 BxPc-3 cells were implanted subcutaneously into the left armpit of 40 nude mice. […] Compound 62 was administered orally everyday (qd) at 10 mg/kg, whereas KPT330 and compound 38 were given three times a week (tiw, Monday, Wednesday and Friday) at 10 mg/kg by oral gavage, and compound 79 were given three times a week (tiw, Monday, Wednesday and Friday) at 2.5 mg/kg by oral gavage. Tumor volume and body weight were measured every other day. Mice were sacrificed on day 21, and tumor and terminal body weight were recorded. The relative tumor volume, percent treatment/control values and tumor growth inhibition were calculated and statistics was performed.

Aqueous solubility assay = format: physicochemical; conditions: thermodynamic from solid, HPLC
Method: 10-30 mg of compounds were dissolved in water and an HCl solution at pH1.2 respectively, and then were continuously shook for three days, followed by centrifugation at 10000 rpm/minute for five minutes. A 2 mL aliquot of supernatant was removed and diluted to 50 mL to prepare a sample solution. A control solution was prepared by dissolving 2.5 mg compounds in methanol, which was subsequently diluted with water to a final volume of 50 mL. 20 μL of control and sample solutions were injected into HPLC. The area under the curve (A) of the sample solution was compared with that of the control solution and used for determination of the concentration. Solubility was calculated by the formula below. Solubility (mg/mL)=c(control)*25*A(sample)/A(control) • C (control): concentration of the control solution • A (sample): area under the curve of the sample solution • A (control): area under the curve of the control solution

CRM1 = molecular target: T1, CRM1 (Homo sapiens, UniProt O14980); assay: Rev-GFP nuclear export assay; format: cell-based; conditions: U2OS cells expressing Rev-GFP, 1 hour incubation, nuclear retention of Rev-GFP
T1 construct: The nuclear localization of Rev protein depends on CRM1; endogenous in cells; host or cells: U2OS cells stably or transiently expressing Rev-GFP (reporter cargo)
Method: The Rev protein from HIV contains nuclear export sequence (NES) at its C terminus and nuclear localization sequence (NLS) at its N-terminus. The nuclear localization of Rev protein depends on CRM1. U2OS cells expressing Rev protein fused with GFP (Rev-GFP) were plated in black 384 plates with clear bottom one day prior to treatment. Compounds were serially diluted 2-fold from 40 μM with DMEM in 384 plates, and then incubated with U2OS cells for an hour. Cells were fixed with 3.7% formaldehyde afterwards and nuclei were stained with Hoechst33258. The nuclear retention of Rev-GFP was examined, and IC50 was calculated.

[2] = tested on: BxPC-3 cells (pancreatic cancer); assay: Cancer cell proliferation assay, BxPC-3; format: cell-based; conditions: Homo sapiens, BXPC-3, 72 h; three days incubation, absorbance 570 nm; read-out: IC50 (μM) BxPC-3
Method: (§1) BxPC-3 cells (pancreatic cancer) and MDA-MB-231 cells (breast cancer cells) were harvested from exponential phase cultures and seeded in 96-well plates at a cell density of 2×10^4 per well. After overnight attachment, compounds including positive controls were applied to cells at five concentrations and incubated for three days. During the last four hours of incubation, 20 μL of 5 mg/mL […] was added followed by the further addition of 100 μL DMSO. The plates were subsequently shook for 10 minutes to dissolve insoluble purple formazan. Absorbance (A) at a wavelength of 570 nm was quantified. Percentage of inhibition was used for the calculation of IC50 based on the bliss method.

[3] = tested on: MDA-MB-231 cells (breast cancer cells); assay: Cancer cell proliferation assay, MDA-MB-231; format: cell-based; conditions: Homo sapiens, MDA-MB-231, 72 h; three days incubation, absorbance 570 nm; read-out: IC50 (μM) MDA-MB-231
Method: as §1

[4] = D1, first day of drug treatment, oral: KPT-330 and 38 10 mg/kg tiw, 79 2.5 mg/kg tiw, 62 10 mg/kg qd
[5] = D21, oral: KPT-330 and 38 10 mg/kg tiw, 79 2.5 mg/kg tiw, 62 10 mg/kg qd

T1 sequence (O14980 whole entry): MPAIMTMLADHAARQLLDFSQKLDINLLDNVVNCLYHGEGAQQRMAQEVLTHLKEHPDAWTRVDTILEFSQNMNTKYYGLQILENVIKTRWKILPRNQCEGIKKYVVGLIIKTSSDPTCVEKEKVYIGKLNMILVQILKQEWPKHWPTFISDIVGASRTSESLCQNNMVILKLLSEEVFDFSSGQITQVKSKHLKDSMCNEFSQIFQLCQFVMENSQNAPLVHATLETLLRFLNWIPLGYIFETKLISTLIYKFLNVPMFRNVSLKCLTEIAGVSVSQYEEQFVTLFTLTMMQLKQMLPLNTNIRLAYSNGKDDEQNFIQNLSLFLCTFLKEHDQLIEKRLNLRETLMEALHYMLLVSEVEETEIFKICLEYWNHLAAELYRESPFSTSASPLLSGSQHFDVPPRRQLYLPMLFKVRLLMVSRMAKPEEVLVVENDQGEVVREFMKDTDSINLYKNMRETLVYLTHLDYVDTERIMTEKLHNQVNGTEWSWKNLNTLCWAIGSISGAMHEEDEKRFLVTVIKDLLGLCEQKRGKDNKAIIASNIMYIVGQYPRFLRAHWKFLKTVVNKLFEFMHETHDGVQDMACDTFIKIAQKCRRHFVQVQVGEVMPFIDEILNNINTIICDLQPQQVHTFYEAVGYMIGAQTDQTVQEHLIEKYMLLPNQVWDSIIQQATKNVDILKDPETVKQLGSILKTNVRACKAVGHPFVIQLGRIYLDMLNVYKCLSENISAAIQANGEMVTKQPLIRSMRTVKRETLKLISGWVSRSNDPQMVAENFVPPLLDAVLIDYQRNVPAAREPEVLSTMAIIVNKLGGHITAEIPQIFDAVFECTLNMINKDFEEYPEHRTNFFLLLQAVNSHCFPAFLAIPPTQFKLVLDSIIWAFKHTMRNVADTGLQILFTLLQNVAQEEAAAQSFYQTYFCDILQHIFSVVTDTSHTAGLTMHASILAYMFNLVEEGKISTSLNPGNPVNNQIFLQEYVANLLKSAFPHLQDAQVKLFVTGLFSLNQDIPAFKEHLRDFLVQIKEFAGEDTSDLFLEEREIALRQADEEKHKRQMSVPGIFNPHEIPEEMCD

COC1=CC(=O)N(NC(=O)/C=C\n2cnc(-c3cc(C(F)(F)F)cc(C(F)(F)F)c3)n2)C1 [Compound 79, (Z)-3-(3-(3,5-bis(trifluoromethyl)phenyl)-1H-1,2,4-triazol-1-yl)-N-(4-methoxy-2-oxo-2,5-dihydro-1H-pyrrol-1-yl)acrylamide]
AUC(0-t) [1]: 3410 ng·h/mL | Cmax [1]: 440 ng/mL | MRT [1]: 5.89 h | Tmax [1]: 1 h | half-life [1]: 3.42 h | Tumor volume D1 (BxPC-3 xenografts; [4]): 66.87 ± 9.13 mm^3 | average body weight D1 (BxPC-3 xenografts; [4]): 20.15 g | TGI (tumor growth inhibition) (BxPC-3 xenografts; [5]): 84.37% | Tumor volume D21 (BxPC-3 xenografts; [5]): 126.90 ± 17.73 mm^3 | average body weight D21 (BxPC-3 xenografts; [5]): 21.30 g | RTV (relative tumor volume, Vt/V0) (BxPC-3 xenografts; D21, oral: KPT-330 and 38 10 mg/kg tiw, 79 2.5 mg/kg tiw, 62 10 mg/kg qd, *P < 0.05 vs. vehicle group): 1.63* | anti-tumor growth activity in BxPC-3 xenograft model (in words) (BxPC-3 xenografts; Example 79 2.5 mg/kg, Example 38 10 mg/kg, compared to 10 mg/kg KPT-330): significant anti-tumor growth activity; also recorded: more potent in inhibiting tumor growth | T/C (BxPC-3 xenografts; TRTV/CRTV X 100, oral: KPT-330 and 38 10 mg/kg tiw, 79 2.5 mg/kg tiw, 62 10 mg/kg qd): 49.20% | solubility at 3 days (Aqueous solubility assay; simulated gastric fluid, HCl solution of pH 1.2, shaken three days, read-out: Solubility, HCl solution of pH 1.2): 8.54 µg/mL (≈ 18.5 µM) | solubility at 3 days (Aqueous solubility assay; water, shaken three days, read-out: Solubility, Water): 7.89 µg/mL (≈ 17.1 µM) | IC50 (CRM1): < 1000 nM | IC50 [2]: 0.204 µM | IC50 [3]: 0.126 µM

Reference: US11286247B2, “Acryloyl-containing nuclear transport regulators and uses thereof” (WIGEN BIOMEDICINE TECHNOLOGY (SHANGHAI) CO., LTD., priority 2019, dated 2022)
